Assay results: the NIST ThermoML archive (doi:10.1016/j.jct.2016.06.016)
Numbers after ± are expanded uncertainties.

Experiment: xn = mol fraction of the nth substance listed
Details: 100 kPa, Liquid; for viscosity: Concentric cylinders viscometry; for mass density: Vibrating tube method

## CCOC(=O)CCC(=O)OCC [diethyl butanedioate] + CCCCO
288.15 K, x1 = 0.1
  viscosity: 2.665 ± 0.023 mPa·s
  mass density: 851.32 ± 0.81 kg/m3
288.15 K, x1 = 0.2001
  viscosity: 2.382 ± 0.021 mPa·s
  mass density: 884.48 ± 0.81 kg/m3
288.15 K, x1 = 0.3
  viscosity: 2.302 ± 0.02 mPa·s
  mass density: 913.45 ± 0.81 kg/m3
288.15 K, x1 = 0.3999
  viscosity: 2.306 ± 0.021 mPa·s
  mass density: 938.87 ± 0.81 kg/m3
288.15 K, x1 = 0.5
  viscosity: 2.342 ± 0.021 mPa·s
  mass density: 961.37 ± 0.81 kg/m3
288.15 K, x1 = 0.6001
  viscosity: 2.405 ± 0.022 mPa·s
  mass density: 981.44 ± 0.81 kg/m3
288.15 K, x1 = 0.6998
  viscosity: 2.515 ± 0.023 mPa·s
  mass density: 999.46 ± 0.82 kg/m3
288.15 K, x1 = 0.7999
  viscosity: 2.692 ± 0.025 mPa·s
  mass density: 1015.94 ± 0.82 kg/m3
288.15 K, x1 = 0.8997
  viscosity: 2.934 ± 0.028 mPa·s
  mass density: 1031 ± 0.83 kg/m3
288.15 K, x1 = 1
  viscosity: 3.195 ± 0.03 mPa·s
  mass density: 1044.83 ± 0.84 kg/m3
293.15 K, x1 = 0.1
  viscosity: 2.339 ± 0.02 mPa·s
  mass density: 847.26 ± 0.81 kg/m3
293.15 K, x1 = 0.2001
  viscosity: 2.106 ± 0.019 mPa·s
  mass density: 880.14 ± 0.81 kg/m3
293.15 K, x1 = 0.3
  viscosity: 2.041 ± 0.018 mPa·s
  mass density: 908.86 ± 0.81 kg/m3
293.15 K, x1 = 0.3999
  viscosity: 2.045 ± 0.018 mPa·s
  mass density: 934.12 ± 0.81 kg/m3
293.15 K, x1 = 0.5
  viscosity: 2.077 ± 0.019 mPa·s
  mass density: 956.51 ± 0.81 kg/m3
293.15 K, x1 = 0.6001
  viscosity: 2.133 ± 0.02 mPa·s
  mass density: 976.5 ± 0.81 kg/m3
293.15 K, x1 = 0.6998
  viscosity: 2.228 ± 0.021 mPa·s
  mass density: 994.45 ± 0.82 kg/m3
293.15 K, x1 = 0.7999
  viscosity: 2.38 ± 0.022 mPa·s
  mass density: 1010.87 ± 0.82 kg/m3
293.15 K, x1 = 0.8997
  viscosity: 2.585 ± 0.024 mPa·s
  mass density: 1025.85 ± 0.83 kg/m3
293.15 K, x1 = 1
  viscosity: 2.807 ± 0.027 mPa·s
  mass density: 1039.63 ± 0.83 kg/m3
298.15 K, x1 = 0.1
  viscosity: 2.072 ± 0.018 mPa·s
  mass density: 843.14 ± 0.81 kg/m3
298.15 K, x1 = 0.2001
  viscosity: 1.877 ± 0.017 mPa·s
  mass density: 875.78 ± 0.81 kg/m3
298.15 K, x1 = 0.3
  viscosity: 1.825 ± 0.017 mPa·s
  mass density: 904.32 ± 0.81 kg/m3
298.15 K, x1 = 0.3999
  viscosity: 1.831 ± 0.017 mPa·s
  mass density: 929.42 ± 0.81 kg/m3
298.15 K, x1 = 0.5
  viscosity: 1.861 ± 0.017 mPa·s
  mass density: 951.69 ± 0.81 kg/m3
298.15 K, x1 = 0.6001
  viscosity: 1.914 ± 0.018 mPa·s
  mass density: 971.57 ± 0.81 kg/m3
298.15 K, x1 = 0.6998
  viscosity: 2.003 ± 0.019 mPa·s
  mass density: 989.44 ± 0.82 kg/m3
298.15 K, x1 = 0.7999
  viscosity: 2.141 ± 0.02 mPa·s
  mass density: 1005.79 ± 0.82 kg/m3
298.15 K, x1 = 0.8997
  viscosity: 2.318 ± 0.022 mPa·s
  mass density: 1020.71 ± 0.83 kg/m3
298.15 K, x1 = 1
  viscosity: 2.491 ± 0.024 mPa·s
  mass density: 1034.44 ± 0.83 kg/m3
303.15 K, x1 = 0.1
  viscosity: 1.845 ± 0.016 mPa·s
  mass density: 838.99 ± 0.81 kg/m3
303.15 K, x1 = 0.2001
  viscosity: 1.682 ± 0.015 mPa·s
  mass density: 871.41 ± 0.81 kg/m3
303.15 K, x1 = 0.3
  viscosity: 1.64 ± 0.015 mPa·s
  mass density: 899.78 ± 0.81 kg/m3
303.15 K, x1 = 0.3999
  viscosity: 1.649 ± 0.015 mPa·s
  mass density: 924.74 ± 0.81 kg/m3
303.15 K, x1 = 0.5
  viscosity: 1.678 ± 0.016 mPa·s
  mass density: 946.87 ± 0.81 kg/m3
303.15 K, x1 = 0.6001
  viscosity: 1.727 ± 0.016 mPa·s
  mass density: 966.65 ± 0.81 kg/m3
303.15 K, x1 = 0.6998
  viscosity: 1.806 ± 0.017 mPa·s
  mass density: 984.43 ± 0.82 kg/m3
303.15 K, x1 = 0.7999
  viscosity: 1.925 ± 0.018 mPa·s
  mass density: 1000.71 ± 0.82 kg/m3
303.15 K, x1 = 0.8997
  viscosity: 2.078 ± 0.02 mPa·s
  mass density: 1015.58 ± 0.83 kg/m3
303.15 K, x1 = 1
  viscosity: 2.229 ± 0.022 mPa·s
  mass density: 1029.25 ± 0.83 kg/m3
308.15 K, x1 = 0.1
  viscosity: 1.65 ± 0.015 mPa·s
  mass density: 834.83 ± 0.81 kg/m3
308.15 K, x1 = 0.2001
  viscosity: 1.515 ± 0.014 mPa·s
  mass density: 867.03 ± 0.81 kg/m3
308.15 K, x1 = 0.3
  viscosity: 1.482 ± 0.014 mPa·s
  mass density: 895.21 ± 0.81 kg/m3
308.15 K, x1 = 0.3999
  viscosity: 1.492 ± 0.014 mPa·s
  mass density: 920.02 ± 0.81 kg/m3
308.15 K, x1 = 0.5
  viscosity: 1.52 ± 0.014 mPa·s
  mass density: 942.04 ± 0.81 kg/m3
308.15 K, x1 = 0.6001
  viscosity: 1.564 ± 0.015 mPa·s
  mass density: 961.72 ± 0.81 kg/m3
308.15 K, x1 = 0.6998
  viscosity: 1.635 ± 0.016 mPa·s
  mass density: 979.42 ± 0.82 kg/m3
308.15 K, x1 = 0.7999
  viscosity: 1.741 ± 0.017 mPa·s
  mass density: 995.63 ± 0.82 kg/m3
308.15 K, x1 = 0.8997
  viscosity: 1.876 ± 0.018 mPa·s
  mass density: 1010.45 ± 0.82 kg/m3
308.15 K, x1 = 1
  viscosity: 2.008 ± 0.02 mPa·s
  mass density: 1024.08 ± 0.83 kg/m3
313.15 K, x1 = 0.1
  viscosity: 1.49 ± 0.014 mPa·s
  mass density: 830.64 ± 0.81 kg/m3
313.15 K, x1 = 0.2001
  viscosity: 1.379 ± 0.013 mPa·s
  mass density: 862.62 ± 0.81 kg/m3
313.15 K, x1 = 0.3
  viscosity: 1.355 ± 0.013 mPa·s
  mass density: 890.63 ± 0.81 kg/m3
313.15 K, x1 = 0.3999
  viscosity: 1.366 ± 0.013 mPa·s
  mass density: 915.3 ± 0.81 kg/m3
313.15 K, x1 = 0.5
  viscosity: 1.394 ± 0.013 mPa·s
  mass density: 937.2 ± 0.81 kg/m3
313.15 K, x1 = 0.6001
  viscosity: 1.437 ± 0.014 mPa·s
  mass density: 956.78 ± 0.81 kg/m3
313.15 K, x1 = 0.6998
  viscosity: 1.502 ± 0.015 mPa·s
  mass density: 974.41 ± 0.82 kg/m3
313.15 K, x1 = 0.7999
  viscosity: 1.596 ± 0.015 mPa·s
  mass density: 990.55 ± 0.82 kg/m3
313.15 K, x1 = 0.8997
  viscosity: 1.712 ± 0.017 mPa·s
  mass density: 1005.31 ± 0.82 kg/m3
313.15 K, x1 = 1
  viscosity: 1.821 ± 0.018 mPa·s
  mass density: 1018.9 ± 0.83 kg/m3
318.15 K, x1 = 0.1
  viscosity: 1.337 ± 0.013 mPa·s
  mass density: 826.42 ± 0.81 kg/m3
318.15 K, x1 = 0.2001
  viscosity: 1.245 ± 0.012 mPa·s
  mass density: 858.18 ± 0.81 kg/m3
318.15 K, x1 = 0.3
  viscosity: 1.226 ± 0.012 mPa·s
  mass density: 886.02 ± 0.81 kg/m3
318.15 K, x1 = 0.3999
  viscosity: 1.239 ± 0.012 mPa·s
  mass density: 910.54 ± 0.81 kg/m3
318.15 K, x1 = 0.5
  viscosity: 1.266 ± 0.012 mPa·s
  mass density: 932.33 ± 0.81 kg/m3
318.15 K, x1 = 0.6001
  viscosity: 1.307 ± 0.013 mPa·s
  mass density: 951.83 ± 0.81 kg/m3
318.15 K, x1 = 0.6998
  viscosity: 1.367 ± 0.013 mPa·s
  mass density: 969.38 ± 0.82 kg/m3
318.15 K, x1 = 0.7999
  viscosity: 1.451 ± 0.014 mPa·s
  mass density: 985.47 ± 0.82 kg/m3
318.15 K, x1 = 0.8997
  viscosity: 1.556 ± 0.015 mPa·s
  mass density: 1000.18 ± 0.82 kg/m3
318.15 K, x1 = 1
  viscosity: 1.66 ± 0.017 mPa·s
  mass density: 1013.72 ± 0.83 kg/m3
323.15 K, x1 = 0.1
  viscosity: 1.218 ± 0.011 mPa·s
  mass density: 822.17 ± 0.81 kg/m3
323.15 K, x1 = 0.2001
  viscosity: 1.142 ± 0.011 mPa·s
  mass density: 853.72 ± 0.81 kg/m3
323.15 K, x1 = 0.3
  viscosity: 1.129 ± 0.011 mPa·s
  mass density: 881.38 ± 0.81 kg/m3
323.15 K, x1 = 0.3999
  viscosity: 1.143 ± 0.011 mPa·s
  mass density: 905.78 ± 0.81 kg/m3
323.15 K, x1 = 0.5
  viscosity: 1.169 ± 0.011 mPa·s
  mass density: 927.46 ± 0.81 kg/m3
323.15 K, x1 = 0.6001
  viscosity: 1.208 ± 0.012 mPa·s
  mass density: 946.87 ± 0.82 kg/m3
323.15 K, x1 = 0.6998
  viscosity: 1.264 ± 0.013 mPa·s
  mass density: 964.35 ± 0.82 kg/m3
323.15 K, x1 = 0.7999
  viscosity: 1.342 ± 0.013 mPa·s
  mass density: 980.38 ± 0.82 kg/m3
323.15 K, x1 = 0.8997
  viscosity: 1.435 ± 0.014 mPa·s
  mass density: 995.05 ± 0.82 kg/m3
323.15 K, x1 = 1
  viscosity: 1.523 ± 0.015 mPa·s
  mass density: 1008.55 ± 0.83 kg/m3
